Reference: the METLIN SMRT retention time set (Domingo-Almenara et al. 2019)

Test: gradient 5% acetonitrile 3 min, to 50% in 2 min, to 85% in 15 min, held 3 min, 100 µL/min
Details: column: Zorbax Extend-C18 2.1 x 50 mm; eluents: water / acetonitrile, 0.1% formic acid
Procedure, shortened: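 Values are retention times taken from adduct peaks that software picked and an analyst inspected. The pure standards were run as mixtures of ~100 molecules on HPLC linked to a quadrupole time-of-flight mass spectrometer, in positive and negative ionization mode. A Zorbax Extend-C18 column (2.1 × 50 mm, 1.8 μm) was used at 100 μL/min with water and acetonitrile, each including 0.1% formic acid.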

RP-LC retention time [s] | SMILES
694 | Clc1ccc2nc(-c3ccc(N4CCOCC4)cc3)c(Nc3ccc4c(c3)OCCO4)n2c1
771 | CCC(C)NC(=O)c1nc(CCS(=O)(=O)c2ccccc2)no1 (stereo not given)
726 | Cc1cc(F)ccc1NC(=O)Cn1ccc2sccc2c1=O
830 | O=C1CCC(NC(=O)OCc2ccccc2)(C(=O)OCc2ccccc2)O1 (stereo not given)
901 | O=C(CN1CCN(Cc2ccc(F)cc2)C1=O)NCc1ccc(OC(F)(F)F)cc1
567 | Cc1cc(=O)c2c(=O)[nH][nH]c2[nH]1
584 | CN(C)c1ccc(CNC(=O)C2CCN(Cc3cn(C)c4ccc(Cl)cc34)CC2)cc1
803 | Cc1ccn2cc(-c3ccc(NC(=O)c4ccc(C(C)(C)C)cc4)cc3)nc2n1
1270 | O=S(=O)(c1ccc2c(c1)CCCC2)N1CCCC1c1nc(-c2ccccc2)no1 (stereo not given)
853 | COc1cc2c(cc1CNC(=O)Cn1cc(C#N)c3ccccc31)OCCCO2
779 | CN1c2cc(F)ccc2C(=O)NC12CCN(C(=O)Cc1ccccc1)CC2
595 | O=C(c1ccco1)N1CCC(OC2CCN(Cc3ccccc3)CC2)CC1
1040 | CCCS(=O)(=O)c1nc2ccc(NS(=O)(=O)Cc3cc(C)ccc3C)cc2s1
787 | O=C(NCc1ccc2c(c1)OCO2)c1nc2ccccn2c1-c1ccsc1
718 | Cc1cc(C)cc(NC(=O)N2CC(c3nc(C(C)C)nn3C)C2)c1
934 | CCOc1cc(=O)n2c(c1C(=O)OCc1cccc(F)c1)CCCCC2
1280 | Cc1ccc(C)c(N2CCN(C(=O)C3CCCN(c4nc5ccccc5n(C)c4=O)C3)CC2)c1 (stereo not given)
655 | COc1ccc(NC(=O)C2c3cc(OC)c(OC)cc3C(=O)N(C)C2c2cccnc2)c(OC)c1 (stereo not given)
688 | CC(=O)N1CCc2cc(N3CC(C(=O)Nc4ccc(F)cc4F)CC3=O)ccc21 (stereo not given)
748 | C[C@@H](C(=O)NCC1(CC(=O)O)CCCCC1)n1nnc2ccccc2c1=O
637 | Cc1cc(N2CCN(C(=O)Nc3ccc4c(c3)OCO4)CC2)nc(N2CCCC2)n1
802 | CCCNC(=O)c1sc(Nc2ccc(Br)cn2)nc1C
1170 | CCn1c(=O)c(C)nc2cc(-c3noc(/C=C/c4ccc(C)cc4)n3)ccc21
610 | CC(C)N1CCN(C(=O)c2ccc(CN3CCN(Cc4ccccc4)C(=O)C3=O)cc2)CC1
1080 | Cc1ccc(-c2nc3cnccn3c2Nc2ccc(C)c(Cl)c2)cc1
845 | O=C(Cc1csc(Nc2ncccn2)n1)Nc1ccc2c(c1)Cc1ccccc1-2

RP-LC retention time [s] | SMILES
733 | Cc1cc(=O)n(CC(=O)Nc2cc(F)cc(F)c2)c(N2CCCCC2)n1
1080 | COc1ccc2c(c1)CCc1sc(NC(=O)c3cc(OC)c(OC)c(OC)c3)nc1-2
676 | COc1ccc(OCc2ccc(-c3nc(C#N)c(NCCN(C)C)o3)o2)cc1
817 | Cc1cc(F)ccc1NC(=O)CN1C(=O)CCCc2cc(S(=O)(=O)N3CCCC3)ccc21
1170 | CCc1ccc(-n2ncc3c(=O)n(Cc4nc(-c5ccc(F)cc5)no4)cnc32)cc1
894 | CCOC(=O)c1c(C)n(C)c2ccc(OC(C)C(=O)OC)cc12 (stereo not given)
750 | Cc1ccc(Cl)cc1NC(=O)NCC1CCOCC1
1010 | CCOC(=O)c1ccccc1NC(=O)Cn1nc2c(N3CCSCC3)nccn2c1=O
1170 | CCOc1ccc(-c2nc(Cc3noc(-c4ccccc4OC)n3)c(C)o2)cc1
990 | CCOC(=O)C(CC)n1nc2ccc(S(=O)(=O)N3CCC(C)CC3)cn2c1=O (stereo not given)
842 | CCOCCCNC(=O)C1CCCN(S(=O)(=O)c2ccc3c(ccn3CC)c2)C1 (stereo not given)
977 | CCN(CC)S(=O)(=O)c1cc(-c2nnc(-c3ccccc3)o2)ccc1OC
762 | O=C(c1ccccc1F)N1CCN(S(=O)(=O)c2cc3c4c(c2)CCC(=O)N4CCC3)CC1
692 | O=C(/C=C/c1ccccc1)NC(Cc1ccccc1)C(=O)N1CCN(c2ccccn2)CC1 (stereo not given)
1300 | Cc1ccccc1-c1noc(CSc2nc3cc4c(cc3c(=O)n2Cc2ccccc2)OCO4)n1
1050 | CCCN1C(=O)c2cc(S(=O)(=O)NCC(C)C)ccc2Oc2cccnc21
773 | CN1C(=O)Cc2cc(C(=O)NCc3ccccc3C(F)(F)F)ccc21
1290 | CCOc1ccc(-n2nc(-c3nc(-c4ccc5c(c4)OCO5)no3)c3ccccc3c2=O)cc1
901 | Cc1cc(C)cc(-n2ccn(Cc3nc(-c4cccc(F)c4)no3)c(=O)c2=O)c1
615 | CCN1C(=O)c2ccccc2S(=O)(=O)c2ccc(C(=O)N3CCN(c4ccccn4)CC3)cc21
779 | O=C1CCN(S(=O)(=O)c2ccccc2)CCCN(S(=O)(=O)Cc2ccccc2)CCN1
925 | COc1cccc(-c2noc(C3CCCN3C(=O)Nc3cccc(C)c3C)n2)c1 (stereo not given)
678 | COc1ccc(CNC(=O)N2CC=C(c3cn(C(C)C)c4ncccc34)CC2)cc1
859 | Cn1c(=O)n(CC(=O)N2CCOCC2)c(=O)c2cnc(-c3ccc(Cl)cc3)nc21
610 | Cc1nc2cccnc2n1CCN1CCN(C(=O)Nc2ccc(Cl)cc2)CC1

Second part, the compound before the results:

SMILES | RP-LC retention time [s]
Cc1ccccc1CNC(=O)C(=O)NCC(c1ccc2c(c1)OCO2)N1CCOCC1 (stereo not given) | 668
Cc1nn2c(CNC(=O)Cc3ccsc3)c(-c3ccccc3)nc2s1 | 866
CC(NC(=O)C(=O)N1CCCCC1)C(c1cccs1)N1CCN(c2ccc(F)cc2)CC1 (stereo not given) | 760
CC(C)NC(=O)CN1CCN(C(=O)c2sc3ncccc3c2-n2cccc2)CC1 | 607
Cc1cc(NC(=O)C2CCCN(c3ccc(-n4cccn4)nn3)C2)no1 (stereo not given) | 654
O=C(Nc1cnn(-c2ncncc2N2CCCCC2)c1)C1CCCCC1 | 821
Cc1cccc(NC(=O)C2CCCN(S(=O)(=O)c3c[nH]c(C(=O)N4CCCCCC4)c3)C2)c1C (stereo not given) | 883
CC1CCc2[nH]nc(C(=O)NC3CCCC3)c2C1 (stereo not given) | 806
Cc1cc(C(=O)Nc2c3c(nn2C)CCC3)no1 | 611
CCn1cc(-c2ccc(Cl)cc2)cc1C(=O)NCc1ccncc1 | 720
Cc1ccc(CNC(=O)CCc2conc2-c2ccccc2)cc1 | 896
O=C(CN1CCN(Cc2ccc(F)cc2)C1=O)NCc1cccc(Cl)c1 | 846
COC(=O)c1cccc(C(=O)Nc2ccccc2C)n1 | 869
O=C1Nc2ccccc2C1(c1ccc(O)cc1)c1ccc(O)cc1 | 755
O=C(O)C1CCCN(c2cn[nH]c(=O)c2)C1 (stereo not given) | 564
CC(C)COC(=O)NCCc1nc2ccccc2[nH]1 | 556
Cc1cc(C2CCCN2C(=O)Nc2ccccc2C)on1 (stereo not given) | 748
O=C(C1CCOC1)N1CCCn2nc(-c3cccs3)cc2C1 (stereo not given) | 678
CCCn1cc(SCC(=O)Nc2cc(C)on2)c2ccccc21 | 883
CC(C)(C)NC(=O)Cc1cccn1-c1ccc(Cl)cc1 | 994

SMILES | RP-LC retention time [s]
COC(=O)Nc1nc2ccc(C(=O)c3ccc(F)cc3)cc2[nH]1 | 864
O=C(Nc1ccccc1F)C1CCc2nc(N3CCCCC3)ncc2C1 (stereo not given) | 772
COc1ccc(CC(=O)Nc2nc3c(s2)COCC3)cc1OC | 638
Cn1nc(C(=O)N2CCCC(C(=O)Nc3ccccc3)C2)c2c1CCN(C(=O)CC1CCCC1)C2 (stereo not given) | 800
Cc1ccc(Nc2c(-c3ccc(Cl)cc3)nc3cnccn23)cc1Cl | 1150
O=C(Cn1nc2ccc(C(=O)NCc3ccccc3)cn2c1=O)NC1CCc2ccccc21 (stereo not given) | 766
CCN(CC)C(=O)CSc1c(C(C)C)cnc2c1c(=O)n(C)c(=O)n2C | 898
O=C(CC1CCCCC1)Nc1ccc(-c2nnc3n2CCCC3)cc1 | 719
Cc1ccccc1-c1noc(Cn2c(=O)n(Cc3ccc(F)cc3)c(=O)c3sccc32)n1 | 1150
CC(=O)c1ccc(NC(=O)C(C)Oc2ccc(=O)n(-c3ccc(F)cc3)n2)cc1 (stereo not given) | 727
O=C(CCc1c(-c2ccccc2)nc2ccccn12)Nc1ccc(Br)cc1 | 725
CCOc1ccc(-c2nc(CNC(=O)Nc3ccc(OC)c(OC)c3)c(C)o2)cc1 | 822
Cc1nnc([C@@H]2CC(F)(F)CN2C(=O)c2ccc3ccccc3n2)o1 | 756
Cc1cc(F)ccc1NC(=O)C1CCCN1S(=O)(=O)c1cc2c(cc1C)NC(=O)CO2 (stereo not given) | 761
O=C(NCCN1CCOCC1)C1CCCN(c2ncnc3c2nc2n3CCCCC2)C1 (stereo not given) | 575
Cc1nc(N2CCCC2)ncc1-c1ccnc(N2CCN(c3ccccc3)CC2)n1 | 1100
OCCNCCNCc1ccc(-c2cccc(Cl)c2)o1 | 568
CCCNC(=O)N1CCCC1c1nc(-c2cccc(C)c2)no1 (stereo not given) | 826
CNC(=O)N1CCC(C2CCN(C(=O)C3CC=CC3)C2)CC1 (stereo not given) | 646
